Holding throughout (assay type): in vivo
Test [1] concerns Abutilon theophrasti. The test is described as follows: Pre-emergence herbicidal action against ABUTH. Conditions: visual score after 3 weeks vs untreated controls. The source says: (§1) Seeds of monocotyledonous and dicotyledonous weed plants and crop plants are laid out in sandy loam soil in wood-fiber pots and covered with soil. The compounds of the invention, formulated in the form of wettable powders (WP) or as emulsion concentrates (EC), are then applied to the surface of the covering soil in the form of an aqueous suspension or emulsion at a water application rate equivalent to 600 to 800 l/ha, with addition of 0.2% wetting agent. After the treatment, the pots are placed in a greenhouse and kept under good growth conditions for the trial plants. The damage to the test plants is scored visually after a test period of 3 weeks by comparison with untreated controls (herbicidal activity in percent (%): 100% activity=the plants have died, 0% activity=like control plants). […] The tables below illustrate, in an illustrative manner, the post-emergence herbicidal action of the compounds of the invention, the herbicidal activity being stated in percent.

The test system of test [2] is Alopecurus myosuroides. Put plainly: Pre-emergence herbicidal action against ALOMY. The conditions noted are these: 80 g/ha; visual score after 3 weeks vs untreated controls.
Text: as §1

Test [3] has as its system Amaranthus retroflexus. The test is described as follows: Pre-emergence herbicidal action against AMARE. The conditions noted are these: visual score after 3 weeks vs untreated controls.
Text: as §1

The test system of test [4] is Matricaria inodora. The test is described as follows: Pre-emergence herbicidal action against MATIN. The conditions noted are these: visual score after 3 weeks vs untreated controls.
Text: as §1

For test [5], the system named is Setaria viridis. The test is described as follows: Pre-emergence herbicidal action against SETVI. Conditions: 80 g/ha.
Text: as §1

Test [6] relates to Veronica persica. Put plainly: Pre-emergence herbicidal action against VERPE. Conditions: 80 g/ha.
Text: as §1

In test [7] the test system is Abutilon theophrasti. The test is described as follows: Post-emergence herbicidal action against ABUTH. The method, then:
(§2) Seeds of monocotyledonous and dicotyledonous weed and crop plants are laid out in sandy loam soil in wood-fiber pots, covered with soil and cultivated in a greenhouse under good growth conditions. 2 to 3 weeks after sowing, the test plants are treated at the one-leaf stage. The compounds of the invention, formulated in the form of wettable powders (WP) or as emulsion concentrates (EC), are then sprayed onto the green parts of the plants in the form of an aqueous suspension or emulsion at a water application rate equivalent to 600 to 800 l/ha, with addition of 0.2% wetting agent. After the test plants have been left to stand in the greenhouse under optimal growth conditions for about 3 weeks, the action of the preparations is assessed visually in comparison to untreated controls (herbicidal action in percent (%): 100% activity=the plants have died, 0% activity=like control plants). […] The tables below illustrate, in an illustrative manner, the post-emergence herbicidal action of the compounds of the invention, the herbicidal activity being stated in percent.

Test [8] deals with Alopecurus myosuroides. The test is described as follows: Post-emergence herbicidal action against ALOMY. On the procedure: as §2
Test [9] relates to Amaranthus retroflexus. The test is described as follows: Post-emergence herbicidal action against AMARE. Conditions: visual assessment about 3 weeks after treatment. The method, then:
as §2

A further test relates to Avena fatua. Put plainly: Post-emergence herbicidal action against AVEFA. Conditions: 20 g/ha, visual assessment about 3 weeks after treatment. The method, then: as §2
The subject of the next test is Echinochloa crus-galli. Put plainly: Post-emergence herbicidal action against ECHCG. The conditions noted are these: 20 g/ha, visual assessment about 3 weeks after treatment. On the procedure:
as §2

In test [10] the test system is Matricaria inodora. Put plainly: Post-emergence herbicidal action against MATIN. The conditions noted are these: 20 g/ha, visual assessment about 3 weeks after treatment. The method, then: as §2
The test system of test [11] is Setaria viridis. Put plainly: Post-emergence herbicidal action against SETVI. The conditions noted are these: visual assessment about 3 weeks after treatment. On the procedure: as §2
Test [12] relates to Veronica persica. The test is described as follows: Post-emergence herbicidal action against VERPE. The conditions noted are these: 20 g/ha, visual assessment about 3 weeks after treatment. The method, then:
as §2

The test system of test [13] is Viola tricolor. Put plainly: Post-emergence herbicidal action against VIOTR. Conditions: 20 g/ha. The method, then:
as §2

In a further test the test system is Digitaria sanguinalis. The test is described as follows: Pre-emergence herbicidal action against DIGSA.
Text: as §1

The test system of test [14] is Viola tricolor. The test is described as follows: Pre-emergence herbicidal action against VIOTR.
Text: as §1

A further test concerns Pharbitis purpurea. The test is described as follows: Post-emergence herbicidal action against PHBPU. Conditions: 20 g/ha, visual assessment about 3 weeks after treatment. On the procedure:
as §2

Consider `CCN(CC)C(=O)c1c(C(F)F)ccc(C(=O)Nc2nnnn2C)c1C` [Example 1-59], for which the “Pre-emergence action against ABUTH” value in the test with Abutilon theophrasti [1] (80 g/ha) was 100%. The “Pre-emergence action against ALOMY” value in the test with Alopecurus myosuroides [2] is listed as 90%. Besides, the “Pre-emergence action against AMARE” value with Amaranthus retroflexus [3] (20 g/ha) and with Amaranthus retroflexus [3] (80 g/ha) was 100% each time. The “Pre-emergence action against MATIN” value in the test on Matricaria inodora [4] (80 g/ha) stood at 90%. Also, the “Pre-emergence action against SETVI” value with Setaria viridis [5] is listed as 100%. The “Pre-emergence action against VERPE” value in the test on Veronica persica [6] is reported as 90%. Further, the “Post-emergence action against ABUTH” value with Abutilon theophrasti [7] (5 g/ha) and in the test with Abutilon theophrasti [7] (20 g/ha) was 90% in each case. Moreover, the “Post-emergence action against ALOMY” value in the test with Alopecurus myosuroides [8] (5 g/ha) and with Alopecurus myosuroides [8] (20 g/ha) was 90% throughout. In addition, the “Post-emergence action against AMARE in %” value with Amaranthus retroflexus [9] (5 g/ha) and with Amaranthus retroflexus [9] (20 g/ha) was 100% in each case. The “Post-emergence action against AVEFA in %” value with Avena fatua stood at 90%. For the same compound, the “Post-emergence action against ECHCG in %” value in the test on Echinochloa crus-galli came to 80%. For the same compound, the “Post-emergence action against MATIN in %” value with Matricaria inodora [10] came out at 90%. Further, the “Post-emergence action against SETVI in %” value with Setaria viridis [11] (5 g/ha) and in the test with Setaria viridis [11] (20 g/ha) was 90% in each case. Besides, in the test with Veronica persica [12], the “Post-emergence action against VERPE in %” value is on record as 90%. Besides, the “Post-emergence action against VIOTR in %” value in the test with Viola tricolor [13] amounted to 80%.

As for `Cn1nnnc1NC(=O)c1ccc(C(F)(F)F)c(C(=O)N(C2CC2)C2CC2)c1Cl` [Example 1-144], the “Pre-emergence action against ABUTH” value in the test on Abutilon theophrasti [1] (20 g/ha) worked out at 80%; in the test on Abutilon theophrasti [1] (80 g/ha), 100%. In addition, the entries for the “Pre-emergence action against AMARE” value in the test with Amaranthus retroflexus [3] (20 g/ha) and in the test with Amaranthus retroflexus [3] (80 g/ha) were 90% and 100%, respectively. The figures for the “Pre-emergence action against MATIN” value in the test on Matricaria inodora [4] (20 g/ha) and in the test on Matricaria inodora [4] (80 g/ha) were 90% and 100%, respectively. The “Pre-emergence action against DIGSA” value with Digitaria sanguinalis (80 g/ha) turned out to be 100%. Besides, the “Pre-emergence action against VIOTR” value with Viola tricolor [14] (20 g/ha) came to 80%; in the test with Viola tricolor [14] (80 g/ha), 100%. Further, the “Post-emergence action against AMARE in %” value in the test on Amaranthus retroflexus [9] (5 g/ha) and with Amaranthus retroflexus [9] (20 g/ha) was 90% in each case.

Take `CCOC(=O)[C@@H]1CCCN1C(=O)c1c(C(F)(F)F)ccc(C(=O)Nc2nnnn2C)c1Cl` [Example 1-400]: the “Pre-emergence action against ABUTH” value with Abutilon theophrasti [1] (80 g/ha) is recorded as 100%. In addition, the entries for the “Pre-emergence action against AMARE” value in the test with Amaranthus retroflexus [3] (20 g/ha) and in the test with Amaranthus retroflexus [3] (80 g/ha) were 90% and 100%, respectively. Further, the “Pre-emergence action against MATIN” value with Matricaria inodora [4] (80 g/ha) amounted to 90%. Besides, the “Pre-emergence action against DIGSA” value in the test on Digitaria sanguinalis (20 g/ha) and in the test with Digitaria sanguinalis (80 g/ha) was 100% in each case.

With `CCOC(=O)[C@@H]1CCCN1C(=O)c1c(C(F)(F)F)ccc(C(=O)Nc2nnnn2C)c1C` [Example 1-401], the “Pre-emergence action against ABUTH” value in the test with Abutilon theophrasti [1] (20 g/ha) and in the test with Abutilon theophrasti [1] (80 g/ha) was 100% throughout. The “Pre-emergence action against AMARE” value in the test with Amaranthus retroflexus [3] (20 g/ha) and in the test with Amaranthus retroflexus [3] (80 g/ha) was 100% throughout. Besides, the “Pre-emergence action against MATIN” value with Matricaria inodora [4] (80 g/ha) is 90%. The “Pre-emergence action against DIGSA” value in the test on Digitaria sanguinalis (20 g/ha) turned out to be 90%; in the test on Digitaria sanguinalis (80 g/ha) it was 100%. The “Pre-emergence action against SETVI” value with Setaria viridis [5] is reported as 100%. In addition, the “Post-emergence action against MATIN in %” value with Matricaria inodora [10] is on record as 90%. In the test with Pharbitis purpurea, the “Post-emergence action against PHBPU in %” value came to 80%.
